Test results published in patent US5244918A, “Benzofuran derivative and pharmaceutical comprising the same as active ingredient” (Meiji Milk Products Co., Ltd., priority 1989, dated 1993).
Read-outs that look alike come from different tables or passages of the source.

Legend:
5-lipoxygenase = biological target: T1, 5-lipoxygenase (Rattus norvegicus, UniProt P12527); test: 5-Lipoxygenase inhibitive activity (production of 5-HETE by RBL-1 cell supernatant); type: biochemical; details: for IC50: inhibition of 5-HETE production, 37° C., 10 minutes, 100 μM arachidonic acid
T1 construct: ultracentrifugation at 100,000×g for 90 minutes to collect a supernatant, which was served as a 5-lipoxygenase enzyme liquid; host or cells: RBL-1 (rat basophilic leukemia cells), 100,000×g supernatant of sonicated cells
T1 sequence (P12527 1-673): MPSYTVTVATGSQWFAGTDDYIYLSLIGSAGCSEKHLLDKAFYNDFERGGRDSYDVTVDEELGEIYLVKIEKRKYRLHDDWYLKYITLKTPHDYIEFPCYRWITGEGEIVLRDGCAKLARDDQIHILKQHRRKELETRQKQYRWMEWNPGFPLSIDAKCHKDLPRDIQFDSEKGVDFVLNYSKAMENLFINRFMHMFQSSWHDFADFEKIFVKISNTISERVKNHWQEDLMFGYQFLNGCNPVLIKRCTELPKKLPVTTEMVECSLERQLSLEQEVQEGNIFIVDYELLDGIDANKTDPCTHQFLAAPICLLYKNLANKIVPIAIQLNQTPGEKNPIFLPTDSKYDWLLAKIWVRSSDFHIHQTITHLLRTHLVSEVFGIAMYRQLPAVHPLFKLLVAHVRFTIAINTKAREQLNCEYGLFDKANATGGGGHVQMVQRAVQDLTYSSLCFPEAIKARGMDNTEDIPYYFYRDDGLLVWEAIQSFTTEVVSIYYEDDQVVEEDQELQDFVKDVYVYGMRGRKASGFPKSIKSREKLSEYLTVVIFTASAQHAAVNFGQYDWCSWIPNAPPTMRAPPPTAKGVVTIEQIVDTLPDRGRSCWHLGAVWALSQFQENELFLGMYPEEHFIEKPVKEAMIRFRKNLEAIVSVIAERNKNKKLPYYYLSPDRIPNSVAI
Experimental: 2.5×10^7 RBL-1 cells (rat basophilic leukemia cells, purchased from Dainippon Pharmaceutical Co. Ltd.) were washed twice with 0.1M Tris-HCl buffer (pH 7.5) and ultrasonicated. The pulverized cell liquid was subjected to ultracentrifugation at 100,000×g for 90 minutes to collect a supernatant, which was served as a 5-lipoxygenase enzyme liquid in the test. […] After terminating the reaction by an addition of 50 μl of 1N HCl, the reaction mixture was extracted with 6 ml of ethyl acetate.

SRS-A production [1] = details: Prostaglandins 26, 955-973 (1983); read-out: 50% inhibition concentration (known agent, literature); cited from earlier work
[2] = test system: auricle edema induced with arachidonic acid; test: Auricle edema inhibitive activity in mice (induced with arachidonic acid); type: in vivo, mouse (ICR male); details: topical
Experimental: In vivo anti-inflammatory action of Compound 1 was tested using auricle edema in mice as a model.
ICR male mice (Japan Charles River), weighing 29.9-40.4 g, 8 week age, were anesthetized with pentobarbital (Trademark: Nembutal, manufactured by Dainabott-Dainippon Pharmaceutical Co., Ltd.) to measure the thickness of the right ear with a dial thickness gauge. 20 μl of Compound 1 and control compound (acetone) were applied (the amount hereinafter specified) to the inside of the right ear with microsyringe, and, 30 minutes later, 2 mg of arachidonic acid was applied in the same manner to the inside of the right ear. The thickness of the right ear was measured 60 minutes after the application of arachidonic acid. Mice were then sacrificed by vertebral cervical dislocation and a circle with a diameter of 7 mm was cut out from the center of the right ear with an ear punch to measure its weight. The test was performed twice; the amounts of Compound 1 applied were 4 mg, 1 mg, 0.4 mg, 0.04 mg, and 0.004 mg per ear for the first test and 1 mg, 0.2 mg, 0.04 mg, 0.008 mg, and 0.0016 mg per ear for the second test. Both Compound 1 and arachidonic acid were used as dissolved in acetone.
The results are shown in FIG. 8-1 (the first test) and FIG. 8-2 (the second test). […] The 50% effective dose (ED50) in the two experiments were very close to each other, 0.03-0.08 mg/ear.

edema in paws of rats = test: Edema inhibitive activity in rat soles (arachidonate-induced paw edema); type: in vivo, rat (Wister male); details: 200 mg/kg oral
Experimental: In vivo anti-inflammatory action of Compound 1 was tested using edema in paws of rats as a model.
Wister male rats (Japan Charles River), weighing 150-170 g, 6 week age, were fasted from the previous day of the test for serving to the experiment.
Samples (10 ml/kg) were orally administered to the control (solvent: 0.5% gum arabica) group and Compound 1 (200 mg/kg body weight) test group. After 2 hours, 100 μl of a sodium arachidonate solution (5 mg/ml, 0.1M carbonate buffer, pH 8.4) was injected in the paw to determine the increase of the edema volume after 1 hour. The increase of the edema volume was determined by subtracting the value measured 1 hour before the administration of arachidonate from the value measured 1 hour after the administration. The foot volume increase (ml, means±S.D.) in the control group was 0.822±0.131 (n=10), whereas that in Compound 1 test group was 0.664±0.104 (n=8).

SRS-A production [3] = test: SRS-A production inhibitive activity (sensitized guinea pig lung fragments, ileum bioassay); type: cell-based, guinea pig (Hartley male)
Experimental: LTC4 and LTD4 which consist of SRS-A are very strong chemical mediators of allergic bronchial asthma and the like. The inhibitory effect of Compound 1 against the production of SRS-A was therefore biologically measured.
A suspension of 1 mg of egg white albumin and 0.5 ml of complete Freund's adjuvant was intraperitoneally injected to Hartley male guinea pigs. The same antigen liquid was again injected 2 or 3 weeks thereafter to effect the sensitization. The sensitized guinea pigs were sacrificed by bleeding, and the lung was washed with a Tyrode's solution and cut into pieces to prepare lung fragment specimens. 300 mg of the lung fragments were floated on 2.8 ml of the Tyrode's solution. After shaking the solution at 37° C. for 20 minutes, 0.1 ml of Compound 1 was added. Shaking this solution was carried out for a further 5 minutes, followed by the addition of 0.1 ml of an egg white albumin solution (the ultimate antigen concentration: 1 mg/ml). After the reaction at 37° C. for 20 minutes, 12 ml of methanol was added and the mixture was stirred. The reaction mixture was centrifuged, the supernatant was concentrated under reduced pressure to dryness, and the dry solid was dissolved into 1 ml of water to biologically measure LTs (SRS-A) contained therein.
The determination of the quantity of SRS-A produced was carried out by using the ileum enucleated from Hartley male guinea pigs and counting the constriction of the ileum in the presence of 10^-6 M Atropine and Pyrilamine. A standard curve for the standard sample was prepared based on LTD4 to determine the amount of SRS-A produced by the effect of Compound 1 as the amount of LTD4.

mice = test: Single administration toxicity test in mice; details: mouse, in vivo
Experimental: Compound 1 was intravenously or intraperitoneally administered one time to groups of ICR male mice (age: 5 weeks, purchased from Japan SLC Co.), each group consisting of 5, to observe the death of the mice in 14 days. […] Thus, the fatal dose of Compound 1 in single intravenous administration to mice was above 20 mg/kg. […] The fatal dose of Compound 1 in single intraperitoneal administration to mice was about 100 mg/kg or more.

2-(1,3-pentadienyl)-2,3-dihydro-5-hydroxy(or methoxy)-7-methoxy(or hydroxy)benzofuran [Compound 3]
IC50 (5-lipoxygenase): 1.5 µM

CC1=C(C)C(=O)C(CCCCC#CCCCC#CCO)=C(C)C1=O [AA-861]
IC50 (SRS-A production [1]): 1.8 µM

CCCCCC1Cc2cc(O)cc(O)c2O1 (centres unmarked) [Compound 2, 2-n-pentyl-2,3-dihydro-5,7dihydroxybenzofuran]
IC50 (5-lipoxygenase): 1.2 µM

C/C=C/C=C/C1Cc2cc(O)cc(O)c2O1 (stereo not drawn) [Compound 1, 2-(1-tans, 3-trans-pentadienyl)-2,3-dihydro-5,7-dihydroxybenzofuran]
50% effective dose (ED50) ([2]; inside of right ear, 30 min before 2 mg arachidonic acid, two experiments): 0.03-0.08 mg/ear
inhibitory effect against auricle edema (in words) ([2]; ear thickness and weight, FIG. 8-1, 8-2): dose dependent inhibitory effect
foot volume increase (means±S.D.) (edema in paws of rats; 2 h before arachidonate, 1 h after, n=8, control 0.822±0.131 (n=10)): 0.664 ± 0.104 mL
edema inhibitory effect (edema in paws of rats; versus control group): 19.2%
SRS-A inhibitory effect compared with AA-861 (in words) (SRS-A production [3]; AA-861: 1.8×10^-6 M (literature)): equivalent to a known 5-lipoxygenase inhibitory agent, AA-861
IC50 (SRS-A production [3]; Cavia porcellus, 20 min, sensitized guinea pig lung fragments, egg white albumin 1 mg/ml, 37° C., 20 min, read-out: 50% inhibition concentration, SRS-A production): 4 µM
SRS-A production inhibitory effect (in words) (SRS-A production [3]; guinea pig lung): dependent on the concentration
5-lipoxygenase inhibitory activity (in words) (5-lipoxygenase): specific 5-lipoxygenase inhibitory activity
IC50 (5-lipoxygenase): 2 µM
death of mice, intraperitoneal (mice): no death in the mice occurred
fatal dose, single intraperitoneal administration (mice; ip): ≥ 100 mg/kg
fatal dose, single intravenous administration (mice; iv): above 20 mg/kg
death of mice, intravenous (mice; iv, 20 mg/kg): no mice were dead
general conditions, body weight and autopsy, intravenous (mice; iv, 20 mg/kg): No abnormality was observed
